For series [1] the following is noted: anion; cited from earlier work.
Series [2] addresses T1, OVA (Gallus gallus, UniProt P01012).
T1 sequence (P01012 1-386): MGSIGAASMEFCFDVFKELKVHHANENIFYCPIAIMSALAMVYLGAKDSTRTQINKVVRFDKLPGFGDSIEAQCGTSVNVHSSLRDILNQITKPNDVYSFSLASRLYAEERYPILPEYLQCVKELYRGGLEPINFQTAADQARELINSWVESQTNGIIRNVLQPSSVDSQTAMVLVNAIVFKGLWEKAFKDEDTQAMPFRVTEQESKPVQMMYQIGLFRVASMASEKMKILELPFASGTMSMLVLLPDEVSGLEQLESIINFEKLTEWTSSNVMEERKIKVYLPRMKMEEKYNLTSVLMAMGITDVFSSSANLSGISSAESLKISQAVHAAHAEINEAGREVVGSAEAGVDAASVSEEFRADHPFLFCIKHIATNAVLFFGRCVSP
Briefly: Stability of OVA combined with IL adjuvants (dialysis/SEC, circular dichroism, SDS page). It is filed as physicochemical. The source says:
Anions were varied based on hydrophobicity (FIG. 8). […] ILs were screened for: • a. Stability of OVA. […] In vitro immune cell maturation and activation.
Role of the payload. […] Simple dialysis was replaced by SEC to remove OVA from ChoShorb formulations.
On the technique in general: Circular dichroism is the unequal absorption of left and right circularly polarised light.

The test system of series [3] is C57BL/6 mice. As to the method: C57BL/6 mice received two immunizations with 10% IL (w/v) and ovalbumin as a model antigen, at day 0 and day 14.
(§1) Cytokine responses were measured 4 hours after injection.
Antibody responses were measured 14 and 28 days after injection.
T cell responses were measured 7, 14, 21, or 28 days after injection.

The conditions of series [4]: lower doses, comparing across IL concentration.
For series [5] the following is noted: 10% ChoSorb injections. How it is done:
Blood was drawn 4 and 24 hours after the initial dose, and the levels of IL6 and MCP-1 measured (FIGS. 11A-11D). The levels of Tetramer cells were measured at Day 21 and Day 35 (FIGS. 12A-12D). […] The antibody response was measured (FIGS. 13A-13B).

The test system of series [6] is LPO expression. Briefly: LPO expression with or without deferoxamine (ferroptosis indication). Format: cell-based.
Series [7] has as its system Balb/c and C57BL/6 mice. As to conditions: after priming and booster shot.
Procedure: In vivo vaccination of OVA with IL adjuvants in Balb/c and C57BL/6 mice. Antigen-specific antibodies and CD8+ T cell responses were evaluated after priming and booster shot.
Series [8] relates to primary dendritic cells. As to conditions: IL at varying concentrations, with or without OVA. As to the method: (§2) The impact of differential payloads impacting the ChoSorb response was investigated in vitro. The experiment was done with IL alone and IL+OVA at each concentration to understand how payload (OVA) impacts the cell death pathway since payload may impact the early cell death pathway. Cells were treated with IL at varying concentrations and with or without OVA, then stained with Annexin V and PI at 24 hours (FIGS. 28A-28B).

Series [9] relates to mytotubes (C2C12 cells). As to conditions: IL at varying concentrations, with or without OVA. As to the method:
as §2

The test system of series [10] is Balb/c mice. As to the method: Balb/c mice received one immunization with 10% IL (w/v) and ovalbumin as a model antigen. The antibody and humoral response was then measured.
as §1
Antibody responses were measured 14 days after injection.

[11] abbreviates: 4 hours after injection, 10% IL (w/v) with ovalbumin.

“Also recorded” adds a separate entry of the source. Where two headings read alike, the source gives them in different places.

These results are taken from US20260108600A1, “METHODS AND COMPOSITIONS RELATING TO IMPROVED IONIC LIQUID ADJUVANTS” (PRESIDENT AND FELLOWS OF HARVARD COLLEGE, priority 2022, published 2026).

Turning to `CC=C(C)C=C(C)C(=O)O` [2,4-Dimethyl-2,4-hexadienoic acid], in [1], the log partition coefficient (LogP) (usually the decadic logarithm of the partition coefficient of the neutral form, usually between octanol and water) is given as 2.3.

`CC/C=C\C=C\C(=O)O` [2,4-Heptadienoic acid, (2E,4Z)-]: the LogP in series [1] is given as 1.8.

Consider `C=CCCC/C=C/C(=O)O` [2E,7-Octadienoic acid], for which the LogP in series [1] is 2.2.

Turning to `C=CC=CCCC(=O)O` [4,6-Heptadienoic acid], the LogP in series [1] is given as 1.5.

As for `C=CC=CCCCC(=O)O` [5,7-Octadienoic acid], the LogP in series [1] is reported as 1.8.

Take `CCCCCCCCC=CCCCCCC=CCCC(=O)O` [11,4-Eicosadienoic Acid]: the lipophilicity (LogP) in series [1] is listed as 7.9.

For `CC(C)=C(C)/C=C/C(=O)O` [(2E)-4,5-dimethyl-2,4-hexadienoic acid], the log partition coefficient (LogP) in [1] was 2.5.

As to `C=CCC/C=C/C(=O)O` [(2E)-hepta-2,6-dienoic acid], the LogP in series [1] is given as 1.6.

For `C/C=C/C/C=C/C(=O)O` [(2E,5E)-2,5-Heptadienoic acid], in series [1], the LogP is recorded as 1.6.

Regarding `C/C=C/CC/C=C/C(=O)O` [(2E,6E)-2,6-Octadienoic acid], in [1], the lipophilicity (LogP) is listed as 1.8.

In the case of `CCC/C=C/C=C\C(=O)O` [(2Z,4E)-Octa-2,4-dienoic acid], in series [1], the LogP is reported as 2.3.

As for `C=CCC/C=C/CC(=O)O` [(3E)-3,7-octadienoic acid], the log partition coefficient (LogP) in [1] was 1.8.

`CCC/C=C\CC/C=C\CCCCCC(=O)O` [(7Z,11Z)-pentadeca-7,11-dienoate]: in [1], the LogP is on record as 5.4.

For the compound `C/C=C\CC/C=C\CCCCCCCC(=O)O` [(9Z,13Z)-pentadeca-9,13-dienoate], the LogP in series [1] was 5.5.

As to `C/C=C/C=C/C(=O)[O-].C[N+](C)(C)CCO` [ChoSorb, choline:sorbic acid], in series [2], the “antigen (OVA) stability in IL formulation” value was “preserve antigen stability; also recorded: stable”. Moreover, in [2] (simple dialysis replaced by SEC to remove OVA), the “binding of OVA by IL” value is “bound strongly”. The IL-6 concentrations entry in series [3] (setting [11]) and in series [10] (setting [11]) was “significantly higher” each time. Besides, the “Total IgG antibody titers” value in series [3] (Day 14), in series [3] (Day 28) and in series [10] (Day 14) was “significantly increased” throughout. Also, the “CD4+ memory T cells” value in series [3] (Day 21) is “significant increase”. For the same compound, in [3] (Day 28), the “Th1/Th2 antibody response (IgG2c, IgG1)” value was “balanced immune response”. In addition, the “level of antigen-specific T cells (OVA-tetramer staining of CD8+ T cells)” value in [3] (especially after a booster vaccination) is “significantly increased”. Also, the “chemokine and cytokine levels in the serum” value reads like this: (24 hour mark) “significantly higher than saline”; (48 hour mark) “no significant difference from saline”. For the setting “among infiltrating cell types”, the “CD4+ T cells” value is listed as “significant increase”. For the setting “compared to saline”, the “CD45+ cell infiltration into the muscle” value is “more significant rate”. The inflammatory monocytes result is reported as “increase” (draining lymph node) and “increased significantly” (injection site). Besides, the “mature resident cDC1 dendritic cells” value (draining lymph node) is listed as “increase”. The Neutrophils result (draining lymph node (dLN) after IL injection) is on record as “spiked”. Moreover, the Monocytes result (injection site) is given as “increased significantly”. Where the note is “serum”, the IL-6 entry was “upregulated”. Under “serum”, the MCP-1 entry is given as “upregulated”. Further, in series [4], the “tetramer cell levels, separate vs combo delivery” value was “outperformed combo doses”. The “muscle tightness after injection” value in [5] is reported as “cause muscle tightness over time”. Besides, the LPO expression entry is recorded as “induces LPO expression” in [6] (early time points) and “not when treated with deferoxamine (DFO)” in series [6] (treated with deferoxamine (DFO), an iron chelator). In series [7], the “antigen-specific immune response (T-cell and antibody)” value is “create an antigen-specific immune response in both T-cell and antibody responses”. The “apoptosis (Annexin V and PI)” value in series [8] and in [9] was “apoptosis occurs after 24 hours” throughout.

Take `CC=CCCC=CCC(=O)O` [Nona-3,7-dienoate]: the lipophilicity (LogP) in series [1] is 2.6.

For `CCC=CC=CCC(=O)O` [Octa-3,5-dienoic acid], in series [1], the LogP was 1.8.

For `C/C=C/C=C/C(=O)O` [Sorbic Acid], the LogP in [1] is recorded as 1.43.
